From publication PMC5218480 (PLoS ONE, 2017) come the findings set out here.

The test system of this assay is MV-4-11 cells. Briefly: Gene expression microarray analysis (Affymetrix PrimeView) and GSEA. The note with it: ProbeSet 11760938_a_at; LIST D. Details: RFU PODN (11730768_x_at) / Fold change /veh PODN (11730768_x_at) / RFU LINC00158 (11744669_a_at) / Fold change /veh LINC00158 (11744669_a_at) / RFU DUSP10 (11751237_a_at) / Fold change /veh DUSP10 (11751237_a_at) / RFU ID3 (11757404_x_at) / Fold change /veh ID3 (11757404_x_at) / RFU PLEKHG5 (11737974_s_at) / Fold change /veh PLEKHG5 (11737974_s_at) / RFU LRRC4B (11730491_at) / Fold change /veh LRRC4B (11730491_at) / RFU GIMAP4 (11747438_a_at) / Fold change /veh GIMAP4 (11747438_a_at) / RFU KRT8 (11758183_x_at) / Fold change /veh KRT8 (11758183_x_at) / RFU CNN1 (11734310_a_at) / Fold change /veh CNN1 (11734310_a_at) / RFU VPS37D (11726825_at) / Fold change /veh VPS37D (11726825_at) / RFU C10orf10 (11716522_x_at) / Fold change /veh C10orf10 (11716522_x_at) / RFU KIR2DL2 /// KIR2DL4 /// KIR2DL5A /// KIR2DL5B /// KIR2DS1 /// KIR2DS2 /// KIR2DS3 /// KIR2DS4 /// KIR3DL3 /// KIR3DL3 /// KIR3DS1 (11738374_at) / Fold change /veh KIR2DL2 /// KIR2DL4 /// KIR2DL5A /// KIR2DL5B /// KIR2DS1 /// KIR2DS2 /// KIR2DS3 /// KIR2DS4 /// KIR3DL3 /// KIR3DL3 /// KIR3DS1 (11738374_at) / RFU C1QL1 (11718748_at) / Fold change /veh C1QL1 (11718748_at) / RFU TMPRSS4 (11747572_a_at) / Fold change /veh TMPRSS4 (11747572_a_at) / RFU HAMP (11756126_x_at) / Fold change /veh HAMP (11756126_x_at) / RFU RNFT2 (11725882_a_at) / Fold change /veh RNFT2 (11725882_a_at) / RFU NR4A2 (11747474_a_at) / Fold change /veh NR4A2 (11747474_a_at) / RFU ABCC12 (11746883_a_at) / Fold change /veh ABCC12 (11746883_a_at) / RFU TMEM136 (11760407_x_at) / Fold change /veh TMEM136 (11760407_x_at) / RFU CLDN22 /// WWC2 (11732394_at) / Fold change /veh CLDN22 /// WWC2 (11732394_at) / RFU HLA-DPB1 (11760878_x_at) / Fold change /veh HLA-DPB1 (11760878_x_at) / RFU SPINT1 (11716480_a_at) / Fold change /veh SPINT1 (11716480_a_at) / RFU GAP43 (11754022_s_at) / Fold change /veh GAP43 (11754022_s_at) / RFU A4GNT (11735810_at) / Fold change /veh A4GNT (11735810_at) / RFU PRB3 (11715151_x_at) / Fold change /veh PRB3 (11715151_x_at) / RFU TUBB4B (11761932_at) / Fold change /veh TUBB4B (11761932_at) / RFU CAPN14 (11732068_a_at) / Fold change /veh CAPN14 (11732068_a_at) / RFU TMCC2 (11721928_a_at) / Fold change /veh TMCC2 (11721928_a_at) / RFU IRGQ (11745062_a_at) / Fold change /veh IRGQ (11745062_a_at) / RFU FAM174B (11720279_a_at) / Fold change /veh FAM174B (11720279_a_at) / RFU TMPRSS4 (11748680_a_at) / Fold change /veh TMPRSS4 (11748680_a_at) / RFU FAM212B (11763350_a_at) / Fold change /veh FAM212B (11763350_a_at) / RFU PLEKHG5 (11743358_a_at) / Fold change /veh PLEKHG5 (11743358_a_at) / RFU ZSCAN30 (11745921_a_at) / Fold change /veh ZSCAN30 (11745921_a_at) / RFU CMKLR1 (11741424_a_at) / Fold change /veh CMKLR1 (11741424_a_at) / RFU LOC101060620 /// MAPK8IP1 (11723275_at) / Fold change /veh LOC101060620 /// MAPK8IP1 (11723275_at) / RFU SPTSSB (11747773_x_at) / Fold change /veh SPTSSB (11747773_x_at) / RFU PRSS12 (11739890_at) / Fold change /veh PRSS12 (11739890_at) / RFU BIN1 (11741810_x_at) / Fold change /veh BIN1 (11741810_x_at) / RFU WNT11 (11732464_a_at) / Fold change /veh WNT11 (11732464_a_at) / RFU C10orf10 (11716521_a_at) / Fold change /veh C10orf10 (11716521_a_at) / RFU C5orf56 (11738089_at) / Fold change /veh C5orf56 (11738089_at) / RFU CYB561 (11721691_x_at) / Fold change /veh CYB561 (11721691_x_at) / RFU ANKRD19P (11752326_a_at) / Fold change /veh ANKRD19P (11752326_a_at) / RFU OR2T12 /// OR2T33 /// OR2T8 (11738714_s_at) / Fold change /veh OR2T12 /// OR2T33 /// OR2T8 (11738714_s_at) / RFU VCAN (11748164_a_at) / Fold change /veh VCAN (11748164_a_at) / RFU JSRP1 (11732532_at) / Fold change /veh JSRP1 (11732532_at) / RFU KRTAP10-11 (11738290_x_at) / Fold change /veh KRTAP10-11 (11738290_x_at) / RFU MYO3A (11730013_a_at) / Fold change /veh MYO3A (11730013_a_at) / RFU EBF3 (11725865_a_at) / Fold change /veh EBF3 (11725865_a_at) / RFU CAMK2N1 (11719241_x_at) / Fold change /veh CAMK2N1 (11719241_x_at) / RFU C5orf56 (11738088_a_at) / Fold change /veh C5orf56 (11738088_a_at) / RFU OLFML3 (11715873_a_at) / Fold change /veh OLFML3 (11715873_a_at) / RFU LOC100653217 /// NTM (11731650_a_at) / Fold change /veh LOC100653217 /// NTM (11731650_a_at) / RFU MAPK11 (11762145_a_at) / Fold change /veh MAPK11 (11762145_a_at) / RFU FIZ1 (11724087_x_at) / Fold change /veh FIZ1 (11724087_x_at) / RFU OASL (11726364_x_at) / Fold change /veh OASL (11726364_x_at) / RFU SOX15 (11748057_x_at) / Fold change /veh SOX15 (11748057_x_at) / RFU CD79A (11719716_a_at) / Fold change /veh CD79A (11719716_a_at) / RFU HIST1H1D (11736915_at) / Fold change /veh HIST1H1D (11736915_at) / RFU CASKIN2 (11723855_a_at) / Fold change /veh CASKIN2 (11723855_a_at) / RFU LOC730098 (11760151_x_at) / Fold change /veh LOC730098 (11760151_x_at) / RFU OR4N2 (11742367_at) / Fold change /veh OR4N2 (11742367_at) / RFU PRRT2 (11749266_a_at) / Fold change /veh PRRT2 (11749266_a_at) / RFU SNX32 (11753110_a_at) / Fold change /veh SNX32 (11753110_a_at) / RFU CDHR5 (11726645_a_at) / Fold change /veh CDHR5 (11726645_a_at) / RFU RCAN1 (11760418_a_at) / Fold change /veh RCAN1 (11760418_a_at) / RFU FAM167A (11723789_a_at) / Fold change /veh FAM167A (11723789_a_at) / RFU FAM26E (11764081_at) / Fold change /veh FAM26E (11764081_at) / RFU ISYNA1 (11749810_s_at) / Fold change /veh ISYNA1 (11749810_s_at) / RFU ACY1 (11761880_at) / Fold change /veh ACY1 (11761880_at) / RFU 11764098_at / Fold change /veh 11764098_at / RFU SAMD14 (11745864_x_at) / Fold change /veh SAMD14 (11745864_x_at) / RFU NPB (11741838_a_at) / Fold change /veh NPB (11741838_a_at) / RFU TMPRSS6 (11731388_a_at) / Fold change /veh TMPRSS6 (11731388_a_at) / RFU KRTAP10-2 (11738614_at) / Fold change /veh KRTAP10-2 (11738614_at) / RFU ARHGAP8 /// PRR5-ARHGAP8 (11727945_x_at) / Fold change /veh ARHGAP8 /// PRR5-ARHGAP8 (11727945_x_at) / RFU KRTAP5-7 /// NADSYN1 (11734609_at) / Fold change /veh KRTAP5-7 /// NADSYN1 (11734609_at) / RFU RASL12 (11751679_a_at) / Fold change /veh RASL12 (11751679_a_at) / RFU CDKN2B (11736163_a_at) / Fold change /veh CDKN2B (11736163_a_at) / RFU PRF1 (11729649_at) / Fold change /veh PRF1 (11729649_at) / RFU, ZNF638 /// ZNF638-IT1 / Fold change vs veh, ZNF638 /// ZNF638-IT1 / RFU, PANK3 / Fold change vs veh, PANK3 / RFU, SH3YL1 / Fold change vs veh, SH3YL1 / RFU, ZEB2 / Fold change vs veh, ZEB2 / RFU, NRIP1 / Fold change vs veh, NRIP1 / RFU, PTTG1IP / Fold change vs veh, PTTG1IP / RFU, CAPN2 / Fold change vs veh, CAPN2 / RFU, MED14 / Fold change vs veh, MED14 / RFU, SNORA58 / Fold change vs veh, SNORA58 / RFU, C1orf63 / Fold change vs veh, C1orf63 / RFU, LRRFIP1 / Fold change vs veh, LRRFIP1 / RFU, NDUFAF7 / Fold change vs veh, NDUFAF7 / RFU, SLC12A2 / Fold change vs veh, SLC12A2 / RFU, IBTK / Fold change vs veh, IBTK / RFU, ESF1 / Fold change vs veh, ESF1 / Fold change vs veh, TMEM50B / RFU, TAOK1 / Fold change vs veh, TAOK1 / RFU, ACBD3 / Fold change vs veh, ACBD3 / RFU, TMA16 / Fold change vs veh, TMA16 / RFU, RWDD3 / Fold change vs veh, RWDD3 / RFU, BCAT1 / Fold change vs veh, BCAT1 / RFU, EDEM3 / Fold change vs veh, EDEM3 / RFU, TMEM33 / Fold change vs veh, TMEM33 / RFU, WDR75 / Fold change vs veh, WDR75 / RFU, AHCTF1 / Fold change vs veh, AHCTF1 / RFU, TFRC / Fold change vs veh, TFRC / RFU, ZDHHC17 / Fold change vs veh, ZDHHC17 / RFU, NOM1 / Fold change vs veh, NOM1 / RFU, ARL8B / Fold change vs veh, ARL8B / RFU, ZBTB11 / Fold change vs veh, ZBTB11 / RFU, TAMM41 / Fold change vs veh, TAMM41 / RFU, KIAA1704 /// LOC100996395 / Fold change vs veh, KIAA1704 /// LOC100996395 / RFU, ING1 / Fold change vs veh, ING1 / RFU, TRMT61B / Fold change vs veh, TRMT61B / RFU, FUBP3 / Fold change vs veh, FUBP3 / RFU, TP53 / Fold change vs veh, TP53 / RFU, TNKS2 / Fold change vs veh, TNKS2 / RFU, ZFP14 / Fold change vs veh, ZFP14 / RFU, ACTR2 / Fold change vs veh, ACTR2 / RFU, PPP3R1 / Fold change vs veh, PPP3R1 / RFU, PIK3R1 / Fold change vs veh, PIK3R1 / RFU, HNRNPA1 / Fold change vs veh, HNRNPA1 / RFU, RNF170 / Fold change vs veh, RNF170 / RFU, ZNF28 / Fold change vs veh, ZNF28 / RFU, RNGTT / Fold change vs veh, RNGTT / RFU, OGT / Fold change vs veh, OGT / RFU, BRD1 / Fold change vs veh, BRD1 / RFU, MARS / Fold change vs veh, MARS / RFU, ZNF655 / Fold change vs veh, ZNF655 / RFU, FAHD1 / Fold change vs veh, FAHD1 / RFU, BDP1 / Fold change vs veh, BDP1 / RFU, LRRCC1 / Fold change vs veh, LRRCC1 / RFU, ARID1A / Fold change vs veh, ARID1A / RFU, ZNF146 / Fold change vs veh, ZNF146 / RFU, ZNF330 / Fold change vs veh, ZNF330 / RFU, GPN3 / Fold change vs veh, GPN3 / RFU, C9orf123 / Fold change vs veh, C9orf123 / RFU, N4BP2L2 / Fold change vs veh, N4BP2L2 / RFU, ARFIP1 / Fold change vs veh, ARFIP1 / RFU, FAM179B / Fold change vs veh, FAM179B / RFU, BCL10 / Fold change vs veh, BCL10 / RFU, UHRF1BP1L / Fold change vs veh, UHRF1BP1L / RFU, BET1 / Fold change vs veh, BET1 / RFU, CNOT2 / Fold change vs veh, CNOT2 / RFU, ZNF268 / Fold change vs veh, ZNF268 / Fold change vs veh, ZNF507 / RFU, DGCR2 / Fold change vs veh, DGCR2 / RFU, WDSUB1 / Fold change vs veh, WDSUB1 / Fold change vs veh, HSP90B1 /// MIR3652 / RFU, ADSS / Fold change vs veh, ADSS / RFU, GK / Fold change vs veh, GK / RFU, ZNF148 / Fold change vs veh, ZNF148 / RFU, TAF9 / Fold change vs veh, TAF9 / RFU, SLC1A5 / Fold change vs veh, SLC1A5 / RFU, SLMO2 / Fold change vs veh, SLMO2 / RFU, ABCC4 / Fold change vs veh, ABCC4 / RFU, LOC101060439 /// RAP1B / Fold change vs veh, LOC101060439 /// RAP1B / RFU, RFX7 / Fold change vs veh, RFX7 / RFU, GTPBP10 / Fold change vs veh, GTPBP10 / RFU, CNEP1R1 / Fold change vs veh, CNEP1R1 / RFU, BIVM-ERCC5 /// ERCC5 / Fold change vs veh, BIVM-ERCC5 /// ERCC5 / RFU, ILF3 / Fold change vs veh, ILF3 / RFU 11762660_at / Fold change /veh 11762660_at / RFU VCAN (11757783_s_at) / Fold change /veh VCAN (11757783_s_at) / RFU DDX43 (11728927_at) / Fold change /veh DDX43 (11728927_at) / RFU KRT8 (11758188_x_at) / Fold change /veh KRT8 (11758188_x_at) / RFU NKD1 (11759106_at) / Fold change /veh NKD1 (11759106_at) / RFU SRD5A1 (11742802_a_at) / Fold change /veh SRD5A1 (11742802_a_at) / RFU TPSAB1 /// TPSB2 (11721975_s_at) / Fold change /veh TPSAB1 /// TPSB2 (11721975_s_at) / RFU GSTM3 (11746129_a_at) / Fold change /veh GSTM3 (11746129_a_at) / RFU IL23R (11737362_x_at) / Fold change /veh IL23R (11737362_x_at) / RFU TMEM51 (11727254_a_at) / Fold change /veh TMEM51 (11727254_a_at) / RFU PIWIL2 (11732686_x_at) / Fold change /veh PIWIL2 (11732686_x_at) / RFU ORM1 (11744905_x_at) / Fold change /veh ORM1 (11744905_x_at) / RFU CCDC152 (11743942_at) / Fold change /veh CCDC152 (11743942_at) / RFU ECM1 (11717891_a_at) / Fold change /veh ECM1 (11717891_a_at) / RFU IL23R (11748794_a_at) / Fold change /veh IL23R (11748794_a_at) / RFU TNFAIP8L3 (11732012_x_at) / Fold change /veh TNFAIP8L3 (11732012_x_at) / RFU MBOAT4 (11741988_at) / Fold change /veh MBOAT4 (11741988_at) / RFU 11764193_at / Fold change /veh 11764193_at / RFU TMEM53 (11763286_at) / Fold change /veh TMEM53 (11763286_at) / RFU MAGEB2 (11727129_at) / Fold change /veh MAGEB2 (11727129_at) / RFU TMEM200A (11744735_a_at) / Fold change /veh TMEM200A (11744735_a_at) / RFU CCDC152 (11751479_a_at) / Fold change /veh CCDC152 (11751479_a_at) / RFU FAM211A (11726209_a_at) / Fold change /veh FAM211A (11726209_a_at) / RFU RGS16 (11746705_a_at) / Fold change /veh RGS16 (11746705_a_at) / RFU VCAN (11755009_s_at) / Fold change /veh VCAN (11755009_s_at) / RFU RHOB (11743442_s_at) / Fold change /veh RHOB (11743442_s_at) / RFU RGS16 (11720943_a_at) / Fold change /veh RGS16 (11720943_a_at) / RFU RGS16 (11720944_at) / Fold change /veh RGS16 (11720944_at) / RFU, VPS4B / Fold change vs veh, VPS4B / RFU, CREB1 / Fold change vs veh, CREB1 / RFU, DNAJC13 / Fold change vs veh, DNAJC13 / RFU, GNAQ / Fold change vs veh, GNAQ / RFU, CDK5R1 / Fold change vs veh, CDK5R1 / RFU, ZRANB3 / Fold change vs veh, ZRANB3 / RFU, CUL4A / Fold change vs veh, CUL4A / RFU, CCNY / Fold change vs veh, CCNY / RFU, UFL1 / Fold change vs veh, UFL1 / RFU, COG3 / Fold change vs veh, COG3 / RFU, DIAPH2 / Fold change vs veh, DIAPH2 / RFU, SKA2 / Fold change vs veh, SKA2 / RFU, AFF3 / Fold change vs veh, AFF3 / RFU, LMF1 / Fold change vs veh, LMF1 / RFU, IPO11 / Fold change vs veh, IPO11 / RFU, DFFB / Fold change vs veh, DFFB / RFU, FOXP1 / Fold change vs veh, FOXP1 / RFU, CARD8 / Fold change vs veh, CARD8 / RFU, STRN3 / Fold change vs veh, STRN3 / RFU, ADK / Fold change vs veh, ADK / RFU, RASSF2 / Fold change vs veh, RASSF2 / RFU, WIPF1 / Fold change vs veh, WIPF1 / RFU, LARP1B / Fold change vs veh, LARP1B / RFU, RASA1 / Fold change vs veh, RASA1 / RFU, RB1 / Fold change vs veh, RB1 / RFU, PPFIA1 / Fold change vs veh, PPFIA1 / RFU, MAT2A / Fold change vs veh, MAT2A / RFU, CCT5 / Fold change vs veh, CCT5 / RFU, WDR92 / Fold change vs veh, WDR92 / RFU, CUX1 / Fold change vs veh, CUX1 / RFU, TTC7A / Fold change vs veh, TTC7A / RFU, TMEM135 / Fold change vs veh, TMEM135 / RFU, DEPTOR / Fold change vs veh, DEPTOR / RFU, CPM / Fold change vs veh, CPM / RFU, DNAJB6 / Fold change vs veh, DNAJB6 / RFU, CACNA2D3 / Fold change vs veh, CACNA2D3 / RFU, DTX4 / Fold change vs veh, DTX4 / RFU, TFCP2 / Fold change vs veh, TFCP2 / RFU, GMCL1 /// GMCL1P1 / Fold change vs veh, GMCL1 /// GMCL1P1 / RFU, AEBP2 / Fold change vs veh, AEBP2 / RFU, SNHG1 /// SNORD22 /// SNORD25 /// SNORD26 /// SNORD27 /// SNORD28 /// SNORD29 /// SNORD31 / Fold change vs veh, SNHG1 /// SNORD22 /// SNORD25 /// SNORD26 /// SNORD27 /// SNORD28 /// SNORD29 /// SNORD31 / Fold change (Aza/veh), C12orf56 (ProbeSet 11735607_a_at) / Fold change (ACY-1035/veh), C12orf56 (ProbeSet 11735607_a_at) / Fold change (Aza/veh), FGFR1OP (ProbeSet 11751329_s_at) / Fold change (ACY-1035/veh), FGFR1OP (ProbeSet 11751329_s_at) / Fold change (Aza/veh), VPS36 (ProbeSet 11739960_a_at) / Fold change (ACY-1035/veh), VPS36 (ProbeSet 11739960_a_at) / RFU SYPL1 (11715823_x_at) / Fold change /veh SYPL1 (11715823_x_at) / RFU IGFBP7 (11715501_s_at) / Fold change /veh IGFBP7 (11715501_s_at) / RFU REEP3 (11722064_at) / Fold change /veh REEP3 (11722064_at) / RFU IGLL1 (11728026_x_at) / Fold change /veh IGLL1 (11728026_x_at): dose or concentration left out as unconfirmed. The class given is cell-based, human.

Consider `Nc1ncn([C@@H]2O[C@H](CO)[C@@H](O)[C@H]2O)c(=O)n1` [azacitidine], for which the “Fold change vs veh, MAT2A” value came to 0.66.
